Source: patent publication US7989438B2, “Therapeutic compounds” (Istituto di Ricerche di Biologia Molecolare P. Angeletti SpA, priority 2007, dated 2011)
Where two headings read alike, the source gives them in different places.

Tested on: HCV subgenomic replication
Assay: Cell based HCV replication assay (subgenomic replicon in Huh-7 cells, NS3 Cell-ELISA)
Settings: activity ranges
In short: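 Huh-7 cells stably carrying the I377neo/NS3-3′/wt subgenomic replicon, seeded at 10^4 cells/well in DMEM/10% FCS and exposed to inhibitor for 96 h. NS3 expression was measured by Cell-ELISA (mAb 10E5/24, alkaline phosphatase, absorbance 405/620 nm), in duplicate. IC50 was fitted to the Hill equation, with background from parental Huh-7 cells.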

[1] = Table 5, various macrocycles, read-out: IC50* (nM), Inhibition of HCV subgenomic replication

Row | Compound | IC50 [1] [nM] | further results
1 | CC(C)N1CCCC2COc3ccccc3-c3c(C4CCCCC4)c4ccc(cc4n3C2)C(=O)NS(=O)(=O)N(C)CC1 (stereo not shown) [Example 509, 14-cyclohexyl-21-isopropyl-18-methyl-7,8-dihydro-6H-7,11-(propanoiminoethanoiminothioiminomethano)indolo[1,2-e][1,5]benzoxazocin-15-one 17,17-dioxide] | < 25 | –
2 | COc1cccc2c1OCC1CCCN(C)CCN(C)S(=O)(=O)NC(=O)c3ccc4c(C5CCCCC5)c-2n(c4c3)C1 [Example 510, (7R)-14-cyclohexyl-4-methoxy-18,21-dimethyl-7,8-dihydro-6H-7,11-(propanoiminoethanoiminothioiminomethano)indolo[1,2-e][1,5]benzoxazocin-15-one 17,17-dioxide] | < 25 | –
3 | CN1CCCC2COc3c(OCCN4CCCC4)cccc3-c3c(C4CCCCC4)c4ccc(cc4n3C2)C(=O)NS(=O)(=O)N(C)CC1 [Example 511, (7R)-14-cyclohexyl-18,21-dimethyl-4-(2-pyrrolidin-1-ylethoxy)-7,8-dihydro-6H-7,11-(propanoiminoethanoiminothioiminomethano)indolo[1,2-e][1,5]benzoxazocin-15-one 17,17-dioxide] | < 25 | –
4 | CN1CCC(C)(C)CCN(C)S(=O)(=O)NC(=O)c2ccc3c(C4CCCCC4)c4n(c3c2)CC1COc1ccccc1-4 [Example 512, (7R)-14-cyclohexyl-18,21,21,24-tetramethyl-7,8-dihydro-6H-7,11-(epiminopentanoiminothioiminomethano)indolo[1,2-e][1,5]benzoxazocin-15-one 17,17-dioxide] | 150 to 500 | –
5 | Cc1cccc2c1OC[C@@H]1CCCN(C)CCN(C)S(=O)(=O)NC(=O)c3ccc4c([C@H]5CCCC[C@@H]5F)c-2n(c4c3)C1 [Example 513, (7R)-14-[(1R,2S)-2-fluorocyclohexyl]-4,18,21-trimethyl-7,8-dihydro-6H-7,11-(propanoiminoethanoiminothioiminomethano)indolo[1,2-e][1,5]benzoxazocin-15-one 17,17-dioxide] | < 25 | –
6 | Cc1cccc2c1OCC1Cn3c-2c(C2CCCCC2)c2ccc(cc23)C(=O)NS(=O)(=O)N(C)CCN(CC(=O)N(C)C)CCN1C [Example 514, 2-[(7R)-14-cyclohexyl-4,18,24-trimethyl-17,17-dioxido-15-oxo-7,8-dihydro-6H-7,11-(epiminoethanoiminoethanoiminothioiminomethano)-indolo[1,2-e][1,5]benzoxazocin-21-yl]-N,N-dimethylacetamide] | < 25 | –
7 | Cc1cccc2c1OCC1Cn3c-2c(C2CCCCC2)c2ccc(cc23)C(=O)NS(=O)(=O)N(C)CCNCCN1C [Example 515, (7R)-14-cyclohexyl-4,18,24-trimethyl-7,8-dihydro-6H-7,11-(epiminoethanoiminoethanoiminothioiminomethano)-indolo[1,2-e][1,5]benzoxazocin-15-one 17,17-dioxide] | < 25 | –
8 | Cc1cccc2c1OCC1Cn3c-2c(C2CCCCC2)c2ccc(cc23)C(=O)NS(=O)(=O)N(C)CCN(C)CCN1C [Example 516, (7R)-14-cyclohexyl-4,18,21,24-tetramethyl-7,8-dihydro-6H-7,11-(epiminoethanoiminoethanoiminothioiminomethano)-indolo[1,2-e][1,5]benzoxazocin-15-one 17,17-dioxide] | < 25 | –
9 | Cc1cccc2c1OCC1Cn3c-2c(C2CCCCC2)c2ccc(cc23)C(=O)NS(=O)(=O)N(C)CCN(Cc2cnn(C)c2)CCN1C [Example 517, (7R)-14-cyclohexyl-4,18,24-trimethyl-21-[(1-methyl-1H-pyrazol-4-yl)methyl]-7,8-dihydro-6H-7,11-(epiminoethanoiminoethanoiminothioiminomethano)-indolo[1,2-e][1,5]benzoxazocin-15-one 17,17-dioxide] | < 25 | –
10 | CN1CCN(C)[C@H]2COc3ccccc3-c3c(C4CCCC4)c4ccc(cc4n3C2)C(=O)NS(=O)(=O)N(C)CC1 [Example 518, (7R)-14-cyclopentyl-18,21,24-trimethyl-7,8-dihydro-6H-7,11-(epiminoethanoiminoethanoiminothioiminomethano)-indolo[1,2-e][1,5]benzoxazocin-15-one 17,17-dioxide] | < 25 | –
11 | COc1cccc2c1OCC1Cn3c-2c(C2CCCCC2)c2ccc(cc23)C(=O)NS(=O)(=O)N(C)CCOCCN1C [Example 519, (7R)-14-cyclohexyl-4-methoxy-18,24-dimethyl-7,8-dihydro-6H-7,11-(epiminoethanooxyethanoiminothioiminomethano)indolo[1,2-e][1,5]benzoxazocin-15-one 17,17-dioxide] | 25 to 150 | –
12 | Cc1cccc2c1OCC1CCCN(C)CCN(C)S(=O)(=O)NC(=O)c3ccc4c(C5CCCCC5)c-2n(c4c3)C1 [Example 520, (7R)-14-cyclohexyl-4,18,21-trimethyl-7,8-dihydro-6H-7,11-(propanoiminoethanoiminothioiminomethano)indolo[1,2-e][1,5]benzoxazocin-15-one 17,17-dioxide] | < 25 | –
13 | Cc1cccc2c1OCC1CCN(C)CCCN(C)S(=O)(=O)NC(=O)c3ccc4c(C5CCCCC5)c-2n(c4c3)C1 [Example 521, (7R)-14-cyclohexyl-4,18,22-trimethyl-7,8-dihydro-6H-7,11-(ethanoiminopropanoiminothioiminomethano)indolo[1,2-e][1,5]benzoxazocin-15-one 17,17-dioxide] | < 25 | –
14 | Cc1cccc2c1OCC1CCN(CCN(C)C)CCCN(C)S(=O)(=O)NC(=O)c3ccc4c(C5CCCCC5)c-2n(c4c3)C1 [Example 522, (7R)-14-cyclohexyl-22-[2-(dimethylamino)ethyl]-4,18-dimethyl-7,8-dihydro-6H-7,11-(ethanoiminopropanoiminothioiminomethano)indolo[1,2-e][1,5]benzoxazocin-15-one 17,17-dioxide] | < 25 | –
15 | COc1ccc2c(c1)OC[C@@H]1CCN(C)C3CCN(CC3)S(=O)(=O)NC(=O)c3ccc4c(C5CCCCC5)c-2n(c4c3)C1 [Example 523, (20R)-30-cyclohexyl-15-methoxy-23-methyl-18-oxa-2-thia-1,3,10,23-tetraazahexacyclo[22.2.2.1^5,9.1^8,11.1^10,20.0^12,17]hentriaconta-5(31),6,8,11(30),12,14,16-heptaen-4-one 2,2-dioxide] | – | IC50 (Hepatitis C virus, Huh-7, Table 5, various macrocycles, read-out: IC50* (nM), Inhibition of HCV subgenomic replication): < 25 nM
16 | COc1ccc2c(c1)OCC1CCN(C)CC(F)(F)CN(C)S(=O)(=O)NC(=O)c3ccc4c(C5CCCCC5)c-2n(c4c3)C1 [Example 524, (7R)-14-cyclohexyl-20,20-difluoro-3-methoxy-18,22-dimethyl-7,8-dihydro-6H-7,11-(ethanoiminopropanoiminothioiminomethano)indolo[1,2-e][1,5]benzoxazocin-15-one 17,17-dioxide] | 150 to 500 | –
17 | COc1ccc2c(c1)OCC1CCN(C)CC(F)CN(C)S(=O)(=O)NC(=O)c3ccc4c(C5CCCCC5)c-2n(c4c3)C1 [Example 525, (7R)-14-cyclohexyl-20-fluoro-3-methoxy-18,22-dimethyl-7,8-dihydro-6H-7,11-(ethanoiminopropanoiminothioiminomethano)indolo[1,2-e][1,5]benzoxazocin-15-one 17,17-dioxide] | < 25 | –
18 | (5R)-31-cyclohexyl-4,24-dimethyl-7-oxa-23-thia-1,4,15,22,24-pentaazahexacyclo[23.2.2.1^5,15.1^14,17.1^16,20.0^8,13]dotriaconta-8,10,12,14(31),16(30),17,19-heptaen-21-one 23,23-dioxide [Example 305] | – | IC50 (Table 3, various macrocycles, read-out: IC50* (nM), Inhibition of HCV subgenomic replication): < 25 nM
19 | (7R)-14-cyclohexyl-4-methoxy-18,22-dimethyl-7,8-dihydro-6H-7,11-(ethanoiminopropanoiminothioiminomethano)indolo[1,2-e][1,5]benzoxazocin-15-one 17,17-dioxide [Compound A33] | – | IC50 (Table A, Huh-7 replicon cells, 96 hours, read-out: IC50 (nM), Inhibition of HCV subgenomic replication): < 25 nM
